According to US5925769A, “Acetylenic 1,5-diarylpyrazoles as antiinflammatory agents” (Ortho Pharmaceutical, Corp., priority 1998, dated 1999):
pIC50: −log10 of the molar value.

Columns and labels:
CO [1] = experiment: Procedure IV: ex vivo eicosanoid synthesis assay using dogs, CO (TxB2); type: in vivo; conditions: dog, oral, 5 mg/kg
Description: Adult beagle or mongrel dogs (10-15 kg) of either sex were fasted overnight prior to the initiation of each experiment. The forelimb was clipped and swabbed with an alcohol prep (70% isopropanol). Blood was drawn by venipuncture into syringes containing lithium heparin (Starstead, Newton, N.C.) immediately prior to administration of compound or vehicle and then at various intervals following dosing. The test compound was administered orally as a suspension in 0.5% methocel. At various times after dosing, blood samples were drawn and placed on an electric rocker platform to assure complete and continuous mixing. White blood cell (wbc) counts were performed using a Sysmex hematology analyzer. This was done in an effort to normalize the number of leukocytes to be stimulated with calcium ionophore. A 1.0 mL aliquot of whole blood was challenged with 50 μL of a 2.6×10^-5 M solution of calcium ionophore A23187 (Calbiochem, La Jolla, Calif.) prepared in DMSO and diluted in HBSS. After a 15 minute incubation at 37° C., the reaction was stopped by placing the samples in an ice bath (4° C.) for 5 minutes and then centrifuging at 11,000×g for 5 minutes to separate the plasma fraction from blood cells. The plasma fraction was removed, diluted in an appropriate buffer, and analyzed for the presence of LTB4 and TxB2 by standard RIA techniques.

5-LO [2] = biological target: T1, 5-LO (Rattus norvegicus, UniProt P12527); experiment: Procedure II: 5-LO activity (5-HETE) in broken RBL-1 cells (homogenate supernatant); type: biochemical; conditions: RBL-1 broken cell supernatant; read-out: Proc. II 5-LO IC50
T1 construct: the supernatant was saved as the source of enzymes; endogenous in cells; host or cells: RBL-1 (rat basophilic leukemia) cells
T1 sequence (P12527 1-673): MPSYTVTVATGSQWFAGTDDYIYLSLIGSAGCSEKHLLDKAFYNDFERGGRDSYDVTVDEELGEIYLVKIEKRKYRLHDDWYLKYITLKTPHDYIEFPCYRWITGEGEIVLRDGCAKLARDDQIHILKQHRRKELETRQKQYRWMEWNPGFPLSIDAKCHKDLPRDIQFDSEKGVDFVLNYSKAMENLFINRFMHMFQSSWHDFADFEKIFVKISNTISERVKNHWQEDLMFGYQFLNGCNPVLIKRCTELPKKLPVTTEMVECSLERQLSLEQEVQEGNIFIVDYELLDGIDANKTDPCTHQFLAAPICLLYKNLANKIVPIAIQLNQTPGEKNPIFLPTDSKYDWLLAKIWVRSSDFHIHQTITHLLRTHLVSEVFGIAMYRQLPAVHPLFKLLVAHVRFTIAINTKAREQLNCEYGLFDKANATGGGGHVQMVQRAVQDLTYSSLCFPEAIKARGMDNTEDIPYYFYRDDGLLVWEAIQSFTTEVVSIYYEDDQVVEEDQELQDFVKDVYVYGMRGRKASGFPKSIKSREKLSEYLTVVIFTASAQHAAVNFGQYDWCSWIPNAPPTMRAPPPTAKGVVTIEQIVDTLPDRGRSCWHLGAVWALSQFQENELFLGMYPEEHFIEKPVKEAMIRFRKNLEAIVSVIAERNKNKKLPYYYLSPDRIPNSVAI
Procedure, shortened: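 Supernatant from rat RBL-1 homogenate (9,220×g) was pre-incubated 5 min at 37 °C with 2 mM CaCl2 and compound or 1% DMSO, then with 1-^14C-arachidonic acid for 20 min at 37 °C.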

5-LO [3] = biological target: T1, 5-LO; experiment: Procedure III: 5-LO (5-HETE) in intact RBL-1 cells; type: cell-based; conditions: calcium ionophore A 23187, read-out: Proc. III 5-LO IC50
Procedure, shortened: (§1)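 Intact RBL-1 cells at 1×10^5 cells/mL in HBSS were preincubated with vehicle or drug, pelleted and resuspended, then given 1-^14C-AA. 5-HETE (5-LO) and PgD2 (CO) were separated by TLC after acidification/extraction and quantified by radioimaging; IC50 from regression curve fit.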

CO [4] = biological target: T2, CO (Rattus norvegicus, UniProt Q63921); experiment: Procedure III: CO (PgD2) in intact RBL-1 cells; type: cell-based; conditions: calcium ionophore A 23187, read-out: Proc. III CO IC50
T2 construct: the supernatant was saved as the source of enzymes; endogenous in cells; host or cells: RBL-1 (rat basophilic leukemia) cells
T2 sequence (Q63921 27-602): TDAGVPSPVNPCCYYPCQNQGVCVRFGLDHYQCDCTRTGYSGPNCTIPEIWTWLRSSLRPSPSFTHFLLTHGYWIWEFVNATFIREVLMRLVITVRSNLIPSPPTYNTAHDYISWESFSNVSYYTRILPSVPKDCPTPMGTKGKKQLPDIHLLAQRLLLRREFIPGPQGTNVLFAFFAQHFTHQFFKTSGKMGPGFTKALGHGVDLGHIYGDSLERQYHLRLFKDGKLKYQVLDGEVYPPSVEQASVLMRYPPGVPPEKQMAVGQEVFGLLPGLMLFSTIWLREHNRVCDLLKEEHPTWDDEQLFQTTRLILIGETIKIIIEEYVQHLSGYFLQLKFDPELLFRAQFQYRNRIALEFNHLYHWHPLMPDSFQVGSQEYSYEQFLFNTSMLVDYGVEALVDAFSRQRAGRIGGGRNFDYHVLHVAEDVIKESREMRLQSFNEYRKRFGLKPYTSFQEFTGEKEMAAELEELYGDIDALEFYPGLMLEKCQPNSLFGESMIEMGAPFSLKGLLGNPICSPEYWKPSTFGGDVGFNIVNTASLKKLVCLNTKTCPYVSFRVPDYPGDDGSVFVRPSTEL
Procedure, shortened: as §1

- pIC50 (5-LO [2]): 7.15
- pIC50 (5-LO [3]): 5.33
- pIC50 (CO [4]): 4.92
SMILES: COc1ccc(-n2nc(C#CCN(O)C(N)=O)cc2-c2ccc(C)cc2)cc1 [Cpd 1, N-Hydroxy-N-(1(1-(4-methoxyphenyl)-5-(4-methylphenyl)pyrazol-3-yl)-1-propyn-3-yl)urea]
- % inh CO (CO [1]; 1 h): 86%
- % inh CO (CO [1]; 2 h): 82%
- % inh CO (CO [1]; 4 h): 76%
- % inh CO (CO [1]; 8 h): 46%
- % inh CO (CO [1]; 24 h): 11%
